In data set [1] the test system is SARS-CoV-2. As to the kind of experiment: microbe, parasite or virus in culture. It is filed as cell-based. To be noted: for IC50: read-out: IC50 against SARS-CoV-2 infection.
Another data set has as its system SigmaR2. To be noted: literature value (Diaz et al. 2012); cited from earlier work.
The test system of data set [2] is SARS-CoV-2. The following applies: Gordon et al. 2020; cited from earlier work.
The subject of the next data set is SigmaR1. The following applies: read-out: SigmaR1 IC50; literature values (Moebius et al. 1997; Diaz et al. 2012); cited from earlier work.
Where [3] appears, read: Severe acute respiratory syndrome coronavirus 2, Huh-7.
Setting [4] is: Severe acute respiratory syndrome coronavirus 2, Huh-7 cells, MOI 0.2, 10-point two-fold dilution dose response in triplicate.
Setting [5] is: Severe acute respiratory syndrome coronavirus 2, Huh-7 cells.

Read-outs that look alike come from different tables or passages of the source.

Usually EC50 stands for the concentration that produces a half-maximal response. The low end stands for a more potent agent, the high end for a less potent agent. Broadly, the IC50 is the concentration that inhibits the measured activity by half.

The compound `CCC(CC)COC(=O)[C@H](C)N[P@](=O)(OC[C@H]1O[C@@](C#N)(c2ccc3c(N)ncnn23)[C@H](O)[C@@H]1O)Oc1ccccc1` [Remdesivir] gave an EC50 in the data set on SARS-CoV-2 [1] (setting [3]) of 95 nM.
For `C=C1[C@H](CO)[C@@H](O)C[C@@H]1n1cnc2c(=O)[nH]c(N)nc21` [Entecavir], it took 201 nM to reach a half-maximal effect in the data set on SARS-CoV-2 [1] (setting [4]) (EC50).
As for `C[C@@H]1CCN(C(=O)CC#N)C[C@@H]1N(C)c1ncnc2[nH]ccc12` [tofacitinib], the “antiviral activity against SARS-CoV-2 (in words)” value (“antiviral activity … (in words)” for short) in the data set on SARS-CoV-2 [1] (Huh-7 cells) was “the latter was the only one active”.
The compound `CC(C)N=c1cc2n(-c3ccc(Cl)cc3)c3ccccc3nc-2cc1Nc1ccc(Cl)cc1` [Clofazamine] registered an EC50 in the data set on SARS-CoV-2 [1] of 105 nM.
The compound `CCc1nc(C(N)=O)c(Nc2ccc(N3CCC(N4CCN(C)CC4)CC3)c(OC)c2)nc1NC1CCOCC1` [Gilteritinib] returned an EC50 in the data set on SARS-CoV-2 [1] (setting [4]) of 207 nM.
`COc1cc(Nc2c(C#N)cnc3cc(OCCCN4CCN(C)CC4)c(OC)cc23)c(Cl)cc1Cl` [Bosutinib]: in the data set with SARS-CoV-2 [1] (setting [3]), the response was half-maximal at 28 nM (EC50).
As for “transferrin: the protein transferrin (Sigma Aldrich, T2036)”, the “anti-SARS-CoV-2 activity, percentage of infected Huh-7 cells” value with SARS-CoV-2 [1] (Huh-7 cells, protein at 2.3 μM, FIG. 6E) is on record as “devoid of any anti-SARS-CoV-2 activity”.
The compound `Nc1nc2nc[nH]c2c(=S)[nH]1` [Thioguanine] came in with an EC50 in the data set on SARS-CoV-2 [1] (setting [4]) of 232 nM.
In the data set on SARS-CoV-2 [1] (setting [3]), `COc1ccc(CCN(C)CCCC(C#N)(c2ccc(OC)c(OC)c2)C(C)C)cc1OC` (stereo not shown) [Verapamil] came in with an EC50 of 458 nM.
In turn, `O=C(Nc1ccc([N+](=O)[O-])cc1Cl)c1cc(Cl)ccc1O` [Niclosamide] returned an EC50 with SARS-CoV-2 [1] (setting [4]) of 142 nM.
As to `CC(C)(C#N)c1cc(Cn2cncn2)cc(C(C)(C)C#N)c1` [anastrozole], the “exacerbation of SARS-CoV-2 infection” value with SARS-CoV-2 [1] (Huh-7 cells) is reported as “exacerbate SARS-CoV-2 infection”.
In the data set on SARS-CoV-2 [1] (setting [4]), `Cc1cnc(Nc2ccc(OCCN3CCCC3)cc2)nc1Nc1cccc(S(=O)(=O)NC(C)(C)C)c1` [Fedratinib] returned a half-maximal effective concentration (EC50) of 25 nM. Further, the IC50 with SARS-CoV-2 [1] (setting [5]) amounted to 25 nM.
The compound `O=C(NC1CCN(CCCCC2(C(=O)NCC(F)(F)F)c3ccccc3-c3ccccc32)CC1)c1ccccc1-c1ccc(C(F)(F)F)cc1` [Lomitapide] showed an EC50 in the data set on SARS-CoV-2 [1] (setting [4]) of 1580 nM.
For the compound `CC(NC(=O)[C@H](Cc1ccccc1)NC(=O)OCc1ccccc1)C(=O)CF` (stereo partly shown) [Z-FA-FMK], the EC50 with SARS-CoV-2 [1] came to 107 nM. For the same compound, the “antiviral activity … (in words)” value in the data set on SARS-CoV-2 [1] (Huh-7 cells) was “potent antiviral activity”.
For `CCN(CC)CCNC(=O)c1cc(Cl)c(N)cc1OC` [Metoclopramide], the “antiviral activity … (in words)” value in the data set on SARS-CoV-2 [1] (Huh-7 cells) is “dose dependent antiviral activity”. The EC50 in the data set on SARS-CoV-2 [1] (setting [4]) was 469 nM.
In the case of `C[C@@](Cc1ccc(O)c(O)c1)(NN)C(=O)O` [Carbidopa], the “exacerbation of SARS-CoV-2 infection” value in the data set on SARS-CoV-2 [1] (Huh-7 cells) was “exacerbate SARS-CoV-2 infection”.
With `Cc1cc(OCCN2CCOCC2)nn1-c1ccc2ccccc2c1` [S1RA, 4-{2-[5-methyl-1-(naphthalen-2-yl)-1H-pyrazol-3-yloxy]ethyl}morpholine], the half-maximal effective concentration (EC50) in the data set with SARS-CoV-2 [1] (setting [4]) was 222 nM. In addition, the IC50 with SARS-CoV-2 [1] (setting [5]) is 222 nM; in the data set with SigmaR2 it was more than 1000 nM; in the data set on SigmaR1, 17 nM. In the data set on Huh-7 cells, the cell toxicity entry was “limited cell toxicity”. Moreover, the “antiviral activity in Vero-E6 cells” value in the data set on SARS-CoV-2 [2] is listed as “not observed”.

The values are drawn from patent US20240016901A1, “COMPOSITIONS AND METHODS FOR PREVENTING AND TREATING SARS-COV-2 INFECTION” (priority 2020, published 2024).
